Read-outs that look alike come from different tables or passages of the source.
Tests used:
[1] = test system: Plasmodium berghei (Pb-Luc) exoerythrocytic-stage parasites; details: for normalised signal at concentration 10 (first series): concentration 10, first series of dose columns; for normalised signal at concentration 10 (second series): concentration 10, second series of dose columns; for IC50: read-out: PbLuc_IC50
HepG2-A16-CD81EGFP cells = details: for IC50: read-out: Tox_IC50, HepG2 cytotoxicity
[2] = sheet "2nd round", Broad compounds, dose response top concentration 10
[3] = first series, fraction of control
[4] = second series, fraction of control
[5] = sheet 2nd round, maximal inhibition in dose response
[6] = 2nd round, maximal inhibition in dose series
[7] = first series of columns, fraction of control
[8] = second series of columns (replicate), fraction of control

C[C@@H]1CCCCO[C@@H](CN(C)S(=O)(=O)c2ccc(F)cc2)[C@H](C)CN([C@@H](C)CO)C(=O)c2cc(N(C)C)ccc2O1 [BRD-K44445002-001-01-6]
normalised signal at concentration 0.000508053 (first series) [1]: 0.8297
normalised signal at concentration 0.000508053 (second series) [1]: 0.9522
normalised signal at concentration 0.00152416 (first series) [1]: 0.9815
normalised signal at concentration 0.00152416 (second series) [1]: 1.174
normalised signal at concentration 0.00457247 (first series) [1]: 0.6933
normalised signal at concentration 0.00457247 (second series) [1]: 0.8769
normalised signal at concentration 0.0137174 (first series) [1]: 0.8541
normalised signal at concentration 0.0137174 (second series) [1]: 1.037
normalised signal at concentration 0.0411523 (first series) [1]: 1.012
normalised signal at concentration 0.0411523 (second series) [1]: 1.038
normalised signal at concentration 0.123457 (first series) [1]: 1.095
normalised signal at concentration 0.123457 (second series) [1]: 0.8137
normalised signal at concentration 0.37037 (first series) [1]: 0.8834
normalised signal at concentration 0.37037 (second series) [1]: 0.9753
normalised signal at concentration 1.11111 (first series) [1]: 1.034
normalised signal at concentration 1.11111 (second series) [1]: 0.8748
normalised signal at concentration 3.33333 (first series) [1]: 0.858
normalised signal at concentration 3.33333 (second series) [1]: 0.7361
normalised signal at concentration 10 (first series) [1]: 0.7308
normalised signal at concentration 10 (second series) [1]: 0.7674
IC50 [1, 2]: > 10 µM
PbLuc_max_inhibition (%) ([1]; sheet "2nd round"): 31%
IC50 (HepG2-A16-CD81EGFP cells; sheet "2nd round"): > 10 µM
Tox_max_inhibition (%) (HepG2-A16-CD81EGFP cells; sheet "2nd round"): 2%

C[C@@H]1CCCCO[C@@H](CN(C)S(=O)(=O)c2ccc(F)cc2)[C@@H](C)CN([C@H](C)CO)C(=O)c2cc(N(C)C)ccc2O1 [BRD-K46014293-001-01-6]
normalized signal at concentration 10 ([1]; first series of dose-response columns, fraction of control): 1.08
normalized signal at concentration 0.000508053 [1, 3]: 0.75
normalized signal at concentration 0.00152416 [1, 3]: 0.85
normalized signal at concentration 0.00457247 [1, 3]: 0.95
normalized signal at concentration 0.0137174 [1, 3]: 0.77
normalized signal at concentration 0.0411523 [1, 3]: 0.97
normalized signal at concentration 0.123457 [1, 3]: 1.05
normalized signal at concentration 0.37037 [1, 3]: 1.10
normalized signal at concentration 1.11111 [1, 3]: 1.01
normalized signal at concentration 3.33333 [1, 3]: 0.87
IC50 ([1]; sheet 2nd round, Broad compounds, dose response): > 10 µM
normalized signal at concentration 10 ([1]; second series of dose-response columns, fraction of control): 0.93
normalized signal at concentration 0.000508053 [1, 4]: 1.07
normalized signal at concentration 0.00152416 [1, 4]: 0.98
normalized signal at concentration 0.00457247 [1, 4]: 0.95
normalized signal at concentration 0.0137174 [1, 4]: 0.98
normalized signal at concentration 0.0411523 [1, 4]: 0.94
normalized signal at concentration 0.123457 [1, 4]: 1.10
normalized signal at concentration 0.37037 [1, 4]: 1.03
normalized signal at concentration 1.11111 [1, 4]: 0.83
normalized signal at concentration 3.33333 [1, 4]: 0.91
PbLuc_max_inhibition (%) [1, 5]: 25%
IC50 (HepG2-A16-CD81EGFP cells; sheet 2nd round): > 10 µM
Tox_max_inhibition (%) (HepG2-A16-CD81EGFP cells; [5]): 15%

COc1cccc(NC(=O)N[C@@H]2CC[C@H](CC(=O)N3CCN(C)CC3)O[C@@H]2CO)c1 [BRD-K48690594-001-01-7]
normalised signal at concentration 0.000508053 (first series) [1]: 0.9068
normalised signal at concentration 0.000508053 (second series) [1]: 0.9275
normalised signal at concentration 0.00152416 (first series) [1]: 1.012
normalised signal at concentration 0.00152416 (second series) [1]: 1.043
normalised signal at concentration 0.00457247 (first series) [1]: 1.046
normalised signal at concentration 0.00457247 (second series) [1]: 0.8968
normalised signal at concentration 0.0137174 (first series) [1]: 1.108
normalised signal at concentration 0.0137174 (second series) [1]: 0.8364
normalised signal at concentration 0.0411523 (first series) [1]: 0.955
normalised signal at concentration 0.0411523 (second series) [1]: 1.013
normalised signal at concentration 0.123457 (first series) [1]: 0.854
normalised signal at concentration 0.123457 (second series) [1]: 0.8546
normalised signal at concentration 0.37037 (first series) [1]: 1.036
normalised signal at concentration 0.37037 (second series) [1]: 0.9102
normalised signal at concentration 1.11111 (first series) [1]: 1.0718
normalised signal at concentration 1.11111 (second series) [1]: 0.9366
normalised signal at concentration 3.33333 (first series) [1]: 0.8922
normalised signal at concentration 3.33333 (second series) [1]: 0.9328
normalised signal at concentration 10 (first series) [1]: 0.9136
normalised signal at concentration 10 (second series) [1]: 0.9502
IC50 [1, 2]: > 10 µM
PbLuc_max_inhibition (%) ([1]; sheet "2nd round"): 16%
IC50 (HepG2-A16-CD81EGFP cells; sheet "2nd round"): > 10 µM
Tox_max_inhibition (%) (HepG2-A16-CD81EGFP cells; sheet "2nd round"): 14%

N#C[C@@H]1[C@H](c2ccccc2C2=CCCC2)[C@H](CO)N1C(=O)C1CCOCC1 [BRD-K53180201-001-01-6]
PbLuc_max_inhibition (%) [1, 6]: 21%
normalized signal at 0.000508053 (first series) ([1]; concentration 0.000508053, first replicate series, fraction of control): 1.0312
normalized signal at 0.000508053 (second series) ([1]; concentration 0.000508053, second replicate series, fraction of control): 0.7931
normalized signal at 0.00152416 (first series) ([1]; concentration 0.00152416, first replicate series, fraction of control): 1.021
normalized signal at 0.00152416 (second series) ([1]; concentration 0.00152416, second replicate series, fraction of control): 0.9501
normalized signal at 0.00457247 (first series) ([1]; concentration 0.00457247, first replicate series, fraction of control): 0.8781
normalized signal at 0.00457247 (second series) ([1]; concentration 0.00457247, second replicate series, fraction of control): 0.9105
normalized signal at 0.0137174 (first series) ([1]; concentration 0.0137174, first replicate series, fraction of control): 0.9372
normalized signal at 0.0137174 (second series) ([1]; concentration 0.0137174, second replicate series, fraction of control): 0.8749
normalized signal at 0.0411523 (first series) ([1]; concentration 0.0411523, first replicate series, fraction of control): 0.9703
normalized signal at 0.0411523 (second series) ([1]; concentration 0.0411523, second replicate series, fraction of control): 1.2503
normalized signal at 0.123457 (first series) ([1]; concentration 0.123457, first replicate series, fraction of control): 0.9995
normalized signal at 0.123457 (second series) ([1]; concentration 0.123457, second replicate series, fraction of control): 1.034
normalized signal at 0.37037 (first series) ([1]; concentration 0.37037, first replicate series, fraction of control): 0.9827
normalized signal at 0.37037 (second series) ([1]; concentration 0.37037, second replicate series, fraction of control): 0.991
normalized signal at 1.11111 (first series) ([1]; concentration 1.11111, first replicate series, fraction of control): 1.008
normalized signal at 1.11111 (second series) ([1]; concentration 1.11111, second replicate series, fraction of control): 0.8686
normalized signal at 3.33333 (first series) ([1]; concentration 3.33333, first replicate series, fraction of control): 0.9463
normalized signal at 3.33333 (second series) ([1]; concentration 3.33333, second replicate series, fraction of control): 0.9769
normalized signal at 10 (first series) ([1]; concentration 10, first replicate series, fraction of control): 1.181
normalized signal at 10 (second series) ([1]; concentration 10, second replicate series, fraction of control): 1.122
IC50 ([1]; 2nd round, Broad DOS compounds, unit not printed (dose series head 10 to 0.000508053)): > 10 µM
Tox_max_inhibition (%) (HepG2-A16-CD81EGFP cells; [6]): 7%
IC50 (HepG2-A16-CD81EGFP cells; 2nd round, unit inferred): > 10 µM

C[C@H]1CN([C@@H](C)CO)C(=O)CCCn2cc(nn2)CO[C@H]1CN(C)C(=O)Nc1cccc2ccccc12 [BRD-K54628954-001-01-2]
normalized signal at concentration 0.000508053 [1, 7]: 0.8794
normalized signal at concentration 0.00152416 [1, 7]: 0.9359
normalized signal at concentration 0.00457247 [1, 7]: 0.9054
normalized signal at concentration 0.0137174 [1, 7]: 0.8762
normalized signal at concentration 0.0411523 [1, 7]: 0.8388
normalized signal at concentration 0.123457 [1, 7]: 0.9562
normalized signal at concentration 0.37037 [1, 7]: 0.9801
normalized signal at concentration 1.11111 [1, 7]: 0.9783
normalized signal at concentration 3.33333 [1, 7]: 0.874
normalized signal at concentration 10 [1, 7]: 0.9112
IC50 ([1]; sheet 2nd round, Pb-Luc exoerythrocytic stage, 10-point dose response, top concentration 10): > 10 µM
normalized signal at concentration 0.000508053 [1, 8]: 0.8292
normalized signal at concentration 0.00152416 [1, 8]: 0.8809
normalized signal at concentration 0.00457247 [1, 8]: 0.7545
normalized signal at concentration 0.0137174 [1, 8]: 0.9599
normalized signal at concentration 0.0411523 [1, 8]: 0.9428
normalized signal at concentration 0.123457 [1, 8]: 0.9557
normalized signal at concentration 0.37037 [1, 8]: 0.8087
normalized signal at concentration 1.11111 [1, 8]: 0.9126
normalized signal at concentration 3.33333 [1, 8]: 0.9018
normalized signal at concentration 10 [1, 8]: 1.015
PbLuc_max_inhibition (%) [1, 5]: 25%
IC50 (HepG2-A16-CD81EGFP cells; sheet 2nd round): > 10 µM
Tox_max_inhibition (%) (HepG2-A16-CD81EGFP cells; [5]): 1.76%
